In ChEMBL document CHEMBL5233251, “Epoxide containing molecules: A good or a bad drug design approach” (Eur J Med Chem, 2020):
In brackets after ≈: the same amount, converted by molar mass.

Experiments:
Hyalomma lusitanicum = experiment: Anti-insecticidal activity against Hyalomma lusitanicum Koch larvae assessed as inhibition of larval growth; format: functional; settings: for LC50: Hyalomma lusitanicum, read-out: LD50 (the source's name)
HEp-2 = experiment: Cytotoxicity against human HEp-2 cells assessed as inhibition of cell growth; format: functional; settings: read-out: ED50 (the source's name)
A2780 = experiment: Cytotoxicity against human A2780 cells assessed as inhibition of cell growth incubated for 96 hrs by SRB assay; format: toxicity, cell-based; settings: A2780, 96 h
K562 = experiment: Antiproliferative activity against human K562 cells assessed as reduction in cell viability incubated for 48 hrs by CytoX cell viability assay; format: functional, cell-based; settings: K562, 48 h
MCF7 [1] = experiment: Antiproliferative activity against human MCF7 cells assessed as reduction in cell viability incubated for 48 hrs by CytoX cell viability assay; format: functional, cell-based; settings: MCF7, 48 h
HeLa = experiment: Antiproliferative activity against human HeLa cells assessed as reduction in cell viability incubated for 48 hrs by CytoX cell viability assay; format: functional, cell-based
HCT-15 = experiment: Antiproliferative activity against human HCT-15 cells assessed as reduction in cell viability incubated for 48 hrs by CytoX cell viability assay; format: functional, cell-based; settings: HCT-15, 48 h
DU-145 = experiment: Antiproliferative activity against human DU-145 cells assessed as reduction in cell viability incubated for 48 hrs by CytoX cell viability assay; format: functional, cell-based; settings: DU-145, 48 h
MG-63 [2] = experiment: Antiproliferative activity against human MG-63 cells assessed as inhibition of cell growth by MTT assay; format: functional, cell-based
MG-63 [3] = experiment: Antiproliferative activity against human MG-63 cells assessed as reduction in cell viability by SRB assay; format: functional, cell-based
Plasmodium falciparum [4] = experiment: Antimalarial activity against Sulfadoxine-sensitive Plasmodium falciparum FCR3; format: functional, organism-based
Plasmodium falciparum [5] = experiment: Antimalarial activity against Sulfadoxine-sensitive Plasmodium falciparum D6; format: functional, organism-based
Plasmodium falciparum [6] = experiment: Antimalarial activity against […] incubated for 48 hrs; format: functional, organism-based; settings: K1, 48 h
Plasmodium falciparum [7] = experiment: Antimalarial activity against chloroquine-sensitive Plasmodium falciparum D10 incubated for 48 hrs; format: functional, organism-based; settings: D10, 48 h
Plasmodium falciparum [8] = experiment: Antimalarial activity against Sulfadoxine-resistant Plasmodium falciparum W2; format: functional, organism-based
Plasmodium falciparum [9] = experiment: Antimalarial activity against Sulfadoxine-sensitive Plasmodium falciparum HB3; format: functional, organism-based
Plasmodium falciparum [10] = experiment: Antimalarial activity against Sulfadoxine-resistant Plasmodium falciparum 3D7; format: functional, organism-based
MDA-MB-231 = experiment: Cytotoxicity against human MDA-MB-231 cells assessed as inhibition of cell growth incubated for 48 hrs by SRB assay; format: functional, cell-based; settings: MDA-MB-231, 48 h
MCF7 [11] = experiment: Cytotoxicity against human MCF7 cells assessed as inhibition of cell growth incubated for 48 hrs by SRB assay; format: functional, cell-based; settings: MCF7, 48 h
PC-3 = experiment: Cytotoxicity against human PC-3 cells assessed as inhibition of cell growth incubated for 48 hrs by SRB assay; format: functional, cell-based; settings: PC-3, 48 h

What does the source list for `C/C1=C\CC2(OC2(C)C)C(=O)C/C(C)=C/CC1` (stereo not given)?
LD90 (Hyalomma lusitanicum): 2.43 mg/mL; LC50 (Hyalomma lusitanicum): 1210 µg/mL (≈ 5160 µM)

Which results are given for `CC(C)=C1C[C@H]2O[C@@]2(C)CC/C=C(\C)CC1=O`?
LD90 (Hyalomma lusitanicum): 3.45 mg/mL; LC50 (Hyalomma lusitanicum): 1470 µg/mL (≈ 6270 µM)

Which results are given for `CC1=CCC[C@]2(C)CC(=O)C3(C[C@@H]12)OC3(C)C` (stereo not given in full)?
LD90 (Hyalomma lusitanicum): 1.91 mg/mL; LC50 (Hyalomma lusitanicum): 230 µg/mL (≈ 981 µM)

With `C=C1C(=O)O[C@@H]2C[C@@H](C)[C@@H]3C4OC4C(=O)[C@@]3(C)[C@@H](O)[C@H]12` (stereo not given in full) as the molecule, how does the EC50 (HEp-2) read?
Its EC50 is 0.11 µg/mL (≈ 0.395 µM).

With `C=C1C(=O)O[C@@H]2[C@H]3C(C)=CC[C@@]34O[C@@]4(C)CC[C@@H]12` [ARGLABIN] as the molecule, how does the IC50 (A2780) read?
The IC50 was 12.6 µM.

Which IC50 (K562) does the source give for `CC[C@@]1(O)C(=O)OCc2c1cc1n(c2=O)Cc2cc3ccccc3nc2-1` [CAMPTOTHECIN] here?
The IC50 was 2.69 µM.

What about the IC50 (MCF7 [1]) of the same molecule?
The IC50 was 2.8 µM.

And the IC50 (HeLa)?
Its IC50 is 6 µM.

And the IC50 (HCT-15)?
Its IC50 is 1.59 µM.

What about the IC50 (DU-145) of the same molecule?
Its IC50 is 1.99 µM.

For `C[C@@H]1CC[C@@H]([C@]2(C)CO2)[C@H](OCc2ccccc2)C1`, which IC50 (MG-63 [2]) is on record?
Its IC50 is 100 µM.

What about the IC50 (MG-63 [3]) of the same molecule?
Its IC50 is 100 µM.

For `CC(C)=C1C/C=C(\C)CC[C@H]2O[C@@]2(C)CC1=O`, which LD90 (Hyalomma lusitanicum) is on record?
Its LD90 is 4.1 mg/mL.

And the LC50 (Hyalomma lusitanicum)?
The LC50 was 2700 µg/mL (≈ 11500 µM).

`C=C1C(=O)O[C@@H]2C[C@@H](C)[C@]34O[C@H]3CC(=O)[C@@]4(C)[C@@H](O)[C@H]12` was tested. Which EC50 (HEp-2) did it give?
The EC50 was 0.11 µg/mL (≈ 0.395 µM).

With `Cc1cccc([C@]23CC[C@](c4cccc(C)c4)(OO2)[C@H]2O[C@H]23)c1` as the molecule, how does the IC50 (Plasmodium falciparum [4]) read?
The IC50 was 0.01 µM.

What about the IC50 (Plasmodium falciparum [5]) of the same molecule?
The IC50 was 0.01 µM.

What about the IC50 (Plasmodium falciparum [6]) of the same molecule?
The IC50 was 0.08 µM.

What about the IC50 (Plasmodium falciparum [7]) of the same molecule?
The IC50 was 0.08 µM.

And the IC50 (Plasmodium falciparum [8])?
Its IC50 is greater than 10 µM.

And the IC50 (Plasmodium falciparum [9])?
Its IC50 is 0.01 µM.

What about the IC50 (Plasmodium falciparum [10]) of the same molecule?
Its IC50 is greater than 10 µM.

Which EC50 (HEp-2) does the source give for `CC1C(=O)O[C@@H]2C[C@@H](C)[C@]34O[C@H]3CC(=O)[C@@]4(C)[C@@H](O)[C@H]12` (stereo not given in full) here?
Its EC50 is 0.11 µg/mL (≈ 0.392 µM).

For `C[C@]12CC[C@H]3[C@@H](C[C@@H]4O[C@@]45C[C@@H](O)CC[C@]35C)[C@@H]1CC(=O)OC2`, which IC50 (MDA-MB-231) is on record?
Its IC50 is 39.8 µM.

How did the EC50 (HEp-2) turn out when `C[C@@H]1C[C@H]2OC(=O)[C@@H](C)[C@H]2[C@H](O)[C@]2(C)C(=O)C3OC3[C@@H]12` (stereo not given in full) was run?
The EC50 was 0.11 µg/mL (≈ 0.392 µM).

`CC1=C2CC3(OC3(C)C)C(=O)C[C@@]2(C)CCC1` (stereo not given in full) was tested. Which LD90 (Hyalomma lusitanicum) did it give?
The LD90 was 6.33 mg/mL.

What about the LC50 (Hyalomma lusitanicum) of the same molecule?
The LC50 was 4140 µg/mL (≈ 17700 µM).

With `C[C@]12CC[C@H]3[C@@H]([C@@H]4O[C@@H]4C4=CC(=O)C=C[C@@]43C)[C@@H]1CC(=O)OC2` as the molecule, how does the IC50 (MCF7 [11]) read?
Its IC50 is greater than 100 µM.

What about the IC50 (PC-3) of the same molecule?
The IC50 was greater than 100 µM.

And the IC50 (MDA-MB-231)?
Its IC50 is greater than 100 µM.

For `C[C@@H]1OC(=O)C[C@H]2[C@@H]3CC[C@]45O[C@H]4C(=O)CC[C@]5(C)[C@H]3CC[C@]12C`, which IC50 (MDA-MB-231) is on record?
Its IC50 is 3.6 µM.

Which IC50 (K562) does the source give for `Cc1cc(=O)c2c(OC[C@H]3CO3)cc(OC[C@@H]3CO3)cc2o1` here?
Its IC50 is 0.04 µM.

And the IC50 (MCF7 [1])?
Its IC50 is 1.88 µM.

What about the IC50 (HeLa) of the same molecule?
Its IC50 is 1.77 µM.

What about the IC50 (HCT-15) of the same molecule?
Its IC50 is 9.59 µM.

And the IC50 (DU-145)?
Its IC50 is 628 µM.

With `Cc1cc(=O)c2c(O)cc(OC[C@H]3CO3)cc2o1` as the molecule, how does the IC50 (K562) read?
Its IC50 is 9.74 µM.

What about the IC50 (MCF7 [1]) of the same molecule?
Its IC50 is 22.9 µM.

And the IC50 (HeLa)?
Its IC50 is 16.7 µM.

And the IC50 (HCT-15)?
Its IC50 is 27.2 µM.

And the IC50 (DU-145)?
Its IC50 is 15.2 µM.

For `C[C@@H]1C[C@H]2OC(=O)C(C3CO3)[C@H]2[C@H](O)[C@]2(C)C(=O)C3OC3[C@@H]12` (stereo not given in full), which EC50 (HEp-2) is on record?
Its EC50 is 0.11 µg/mL (≈ 0.357 µM).
